Data published in BigSolDB 2.1.

O=C(O)c1ccc(C(=O)O)o1
solubility (mole fraction)
Details	in MIBK	in acetic acid	in acetonitrile	in isobutanol	in methanol	in methyl acetate	in n-butanol	in water
313.15 K	0.000136	0.000235	6.11e-05	0.00168	0.00428	7.78e-05	0.00266	0.000203
318.15 K	0.000184	0.000272	9.15e-05	0.00198	0.00489	0.000113	0.00302	0.000225
323.15 K	0.000253	0.000331	0.000112	0.0023	0.0054	0.000164	0.00346	0.000283
328.15 K	0.000296	0.000404	0.000136	0.0027	0.0068	0.000238	0.00408	0.00037
333.15 K	0.000338	0.000478	0.000166	0.00323	0.00801	0.000285	0.00469	0.000421
338.15 K	0.000429	0.000555	0.000212	0.00372	0.00869	0.000377	0.00524	0.000465
343.15 K	0.000536	0.000717	0.000248	0.00412	0.00894	0.000464	0.00572	0.000598
348.15 K	0.000631	0.00082	0.000278	0.00482	–	0.000549	0.00663	0.000641
353.15 K	0.000666	0.000965	0.000341	0.00548	–	0.00062	0.00741	0.000781
358.15 K	0.000721	0.00115	0.000409	0.00607	–	0.000659	0.0082	0.000908
363.15 K	0.000863	0.00134	0.000487	0.00682	–	0.000721	0.00916	0.0011
